Experimental data taken from patent US11566007B2, “Ras inhibitors” (Revolution Medicines, Inc., priority 2019, dated 2023).

Key:
NCI-H358 (K-Ras G12C) = experiment: CellTiter-Glo cell viability assay, NCI-H358; type: cell-based, human; details: Homo sapiens, NCI-H358, 120 h, NCI-H358, 5-day treatment; class symbols; read-out: Additional H358 Cell Viability assay data (K-Ras G12C, IC50)
Summary of the method: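 Compounds dispensed directly onto seeded K-Ras mutant cells; plates read on day 5 after ~30 min equilibration to room temperature, by CellTiter-Glo luminescence. Signal normalized as (sample/mean DMSO)×100, then fitted to a four-parameter logistic curve.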

K-Ras G12C = K-Ras G12C (Homo sapiens (Human), UniProt P01116+P62937, G12C); experiment: Ras-Raf (BRAF RBD) disruption / FRET / MOA assay, KRAS G12C; type: biochemical; details: KRAS G12C; Ras-Raf disruption/FRET/MOA assay; read-out: IC50* KRAS G12C FRET data
Sequence of K-Ras G12C (P01116-2 other isoform, or with tags, fused parts or gaps G12C): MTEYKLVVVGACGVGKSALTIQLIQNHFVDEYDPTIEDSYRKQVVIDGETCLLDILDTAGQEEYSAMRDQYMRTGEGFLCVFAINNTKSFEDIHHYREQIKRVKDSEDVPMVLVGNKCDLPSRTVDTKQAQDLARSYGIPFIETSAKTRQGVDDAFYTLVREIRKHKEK
Sequence of K-Ras G12C (P62937 whole entry): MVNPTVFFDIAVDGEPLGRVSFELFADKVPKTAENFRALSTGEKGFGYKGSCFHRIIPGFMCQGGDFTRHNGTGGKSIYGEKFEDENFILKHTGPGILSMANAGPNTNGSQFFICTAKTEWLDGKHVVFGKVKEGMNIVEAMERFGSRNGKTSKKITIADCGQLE
Summary of the method: (§1)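 TR-FRET read-out: a drop in ratio relative to DMSO wells marks disruption of the Ras:RAF complex, reported as IC50. Compounds (3-fold series, 10 points, top 30 μM final) incubated 3 h at 25° C before Eu-anti-His 10 nM and APC-anti-GST 50 nM, 1.5 h more.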

K-Ras G13C = K-Ras G13C (Homo sapiens (Human), UniProt P01116+P62937, G13C); experiment: Ras-Raf (BRAF RBD) disruption / FRET / MOA assay, KRAS G13C; type: biochemical; details: KRAS G13C; Ras-Raf disruption/FRET/MOA assay; read-out: IC50* KRAS G13C FRET data
Sequence of K-Ras G13C (P01116-2 other isoform, or with tags, fused parts or gaps G13C): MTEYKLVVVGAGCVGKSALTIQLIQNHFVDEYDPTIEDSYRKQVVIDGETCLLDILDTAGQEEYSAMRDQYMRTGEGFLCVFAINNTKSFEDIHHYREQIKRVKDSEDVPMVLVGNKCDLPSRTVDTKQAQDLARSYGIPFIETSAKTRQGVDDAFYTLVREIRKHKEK
Sequence of K-Ras G13C (P62937 whole entry): as the sequence (P62937 whole entry) above
Summary of the method: as §1

KRAS G12S = KRAS G12S (Homo sapiens (Human), UniProt P01116+P62937, G12S); experiment: Ras-Raf (BRAF RBD) disruption / FRET / MOA assay, KRAS G12S; type: biochemical; details: Ras-Raf disruption/FRET/MOA assay; class symbols; read-out: KRAS G12S FRET data IC50
Sequence of KRAS G12S (P01116-2 other isoform, or with tags, fused parts or gaps G12S): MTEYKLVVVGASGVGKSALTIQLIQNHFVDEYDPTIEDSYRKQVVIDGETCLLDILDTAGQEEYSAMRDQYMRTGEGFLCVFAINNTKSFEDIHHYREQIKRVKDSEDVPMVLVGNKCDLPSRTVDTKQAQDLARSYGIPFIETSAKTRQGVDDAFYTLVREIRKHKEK
Sequence of KRAS G12S (P62937 whole entry): as the sequence (P62937 whole entry) above
Summary of the method: as §1

KRAS G12D = KRAS G12D (Homo sapiens (Human), UniProt P01116+P62937, G12D); experiment: Ras-Raf (BRAF RBD) disruption / FRET / MOA assay, KRAS G12D; type: biochemical; details: Ras-Raf disruption/FRET/MOA assay; class symbols; read-out: KRAS G12D FRET data IC50
Sequence of KRAS G12D (P01116-2 other isoform, or with tags, fused parts or gaps G12D): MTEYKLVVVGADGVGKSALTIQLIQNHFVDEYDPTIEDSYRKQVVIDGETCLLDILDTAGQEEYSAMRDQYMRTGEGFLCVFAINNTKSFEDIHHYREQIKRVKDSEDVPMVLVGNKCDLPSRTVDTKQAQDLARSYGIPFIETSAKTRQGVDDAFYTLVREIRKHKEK
Sequence of KRAS G12D (P62937 whole entry): as the sequence (P62937 whole entry) above
Summary of the method: as §1

KRAS G12V = KRAS G12V (Homo sapiens (Human), UniProt P01116+P62937, G12V); experiment: Ras-Raf (BRAF RBD) disruption / FRET / MOA assay, KRAS G12V; type: biochemical; details: read-out: IC50* KRAS G12V FRET data
Sequence of KRAS G12V (P01116-2 other isoform, or with tags, fused parts or gaps G12V): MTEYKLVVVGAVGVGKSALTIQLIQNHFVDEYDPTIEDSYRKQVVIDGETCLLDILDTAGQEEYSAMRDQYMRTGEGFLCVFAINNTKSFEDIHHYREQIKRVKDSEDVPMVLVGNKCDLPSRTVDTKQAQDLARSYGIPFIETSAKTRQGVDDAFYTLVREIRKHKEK
Sequence of KRAS G12V (P62937 whole entry): as the sequence (P62937 whole entry) above
Summary of the method: as §1

KRAS WT = KRAS WT (Homo sapiens (Human), UniProt P01116+P62937); experiment: Ras-Raf (BRAF RBD) disruption / FRET / MOA assay, KRAS WT; type: biochemical; details: read-out: IC50* KRAS WT FRET data
Sequence of KRAS WT (P01116-2 other isoform, or with tags, fused parts or gaps): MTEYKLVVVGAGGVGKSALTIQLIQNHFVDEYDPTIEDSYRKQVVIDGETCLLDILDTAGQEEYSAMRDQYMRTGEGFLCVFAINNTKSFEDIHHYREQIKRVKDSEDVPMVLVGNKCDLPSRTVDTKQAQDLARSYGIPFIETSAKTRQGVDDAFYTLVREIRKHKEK
Sequence of KRAS WT (P62937 whole entry): as the sequence (P62937 whole entry) above
Summary of the method: as §1

KRAS G13D = KRAS G13D (Homo sapiens (Human), UniProt P01116+P62937, G13D); experiment: Ras-Raf (BRAF RBD) disruption / FRET / MOA assay, KRAS G13D; type: biochemical; details: read-out: IC50* KRAS G13D FRET data
Sequence of KRAS G13D (P01116-2 other isoform, or with tags, fused parts or gaps G13D): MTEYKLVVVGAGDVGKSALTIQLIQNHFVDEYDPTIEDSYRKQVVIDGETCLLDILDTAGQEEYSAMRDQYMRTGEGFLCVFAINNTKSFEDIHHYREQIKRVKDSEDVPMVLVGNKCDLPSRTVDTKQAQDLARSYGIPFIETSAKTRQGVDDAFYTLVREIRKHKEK
Sequence of KRAS G13D (P62937 whole entry): as the sequence (P62937 whole entry) above
Summary of the method: as §1

KRAS Q61H = KRAS Q61H (Homo sapiens (Human), UniProt P01116+P62937, Q61H); experiment: Ras-Raf (BRAF RBD) disruption / FRET / MOA assay, KRAS Q61H; type: biochemical; details: Ras-Raf disruption/FRET/MOA assay; class symbols; read-out: KRAS Q61H FRET data IC50
Sequence of KRAS Q61H (P01116-2 other isoform, or with tags, fused parts or gaps Q61H): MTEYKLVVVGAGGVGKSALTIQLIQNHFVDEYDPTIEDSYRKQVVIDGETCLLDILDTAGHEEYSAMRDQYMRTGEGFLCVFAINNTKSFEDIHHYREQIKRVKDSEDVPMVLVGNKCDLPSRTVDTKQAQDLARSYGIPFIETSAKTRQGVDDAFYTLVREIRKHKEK
Sequence of KRAS Q61H (P62937 whole entry): as the sequence (P62937 whole entry) above
Summary of the method: (§2)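 Compounds were tested as a 10-point 3-fold dilution series from 30 μM final for their ability to drive ternary complex formation between nucleotide-loaded Ras and cyclophilin A, displacing the BRAF RBD. After 3 h at 25° C., anti-His Eu-W1024 (10 nM) and anti-GST allophycocyanin (50 nM) were added for 1.5 h. A TR-FRET ratio decrease versus DMSO gave IC50.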

NRAS G12C = NRAS G12C (Homo sapiens (Human), UniProt P01111+P62937, G12C); experiment: Ras-Raf (BRAF RBD) disruption / FRET / MOA assay, NRAS G12C; type: biochemical; details: read-out: IC50* NRAS G12C FRET data
Sequence of NRAS G12C (P01111 whole entry G12C): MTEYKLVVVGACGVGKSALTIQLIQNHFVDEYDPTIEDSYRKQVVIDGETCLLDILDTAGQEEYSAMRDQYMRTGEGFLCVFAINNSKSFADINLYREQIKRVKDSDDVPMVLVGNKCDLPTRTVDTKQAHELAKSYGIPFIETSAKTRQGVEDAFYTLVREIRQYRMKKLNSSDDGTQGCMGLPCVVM
Sequence of NRAS G12C (P62937 whole entry): as the sequence (P62937 whole entry) above
Summary of the method: as §1

NRAS Q61R = NRAS Q61R (Homo sapiens (Human), UniProt P01111+P62937, Q61R); experiment: Ras-Raf (BRAF RBD) disruption / FRET / MOA assay, NRAS Q61R; type: biochemical; details: NRAS Q61R; Ras-Raf disruption/FRET/MOA assay; read-out: IC50* NRAS Q61R FRET data
Sequence of NRAS Q61R (P01111 whole entry Q61R): as the sequence (P01111 whole entry G12C) above, with C12G, Q61R counted along it
Sequence of NRAS Q61R (P62937 whole entry): as the sequence (P62937 whole entry) above
Summary of the method: as §2

NRAS WT = NRAS WT (Homo sapiens (Human), UniProt P01111+P62937); experiment: Ras-Raf (BRAF RBD) disruption / FRET / MOA assay, NRAS WT; type: biochemical; details: read-out: IC50* NRAS WT FRET data
Sequence of NRAS WT (P01111 whole entry): as the sequence (P01111 whole entry G12C) above, with C12G counted along it
Sequence of NRAS WT (P62937 whole entry): as the sequence (P62937 whole entry) above
Summary of the method: as §2

Row | SMILES | IC50 (NCI-H358 (K-Ras G12C)) | IC50 (K-Ras G12C) | IC50 (K-Ras G13C) | IC50 (KRAS G12S) | IC50 (KRAS G12D) | IC50 (KRAS G12V) | IC50 (KRAS WT) | IC50 (KRAS G13D) | IC50 (KRAS Q61H) | IC50 (NRAS G12C) | IC50 (NRAS Q61R) | IC50 (NRAS WT)
1 | CCn1c(-c2cccnc2[C@H](C)OC)c2c3cc(ccc31)-c1csc(n1)C[C@H](NC(=O)CCO[C@@H]1CCN(C(=O)C#CC(C)(C)N3CCC3)C1)C(=O)N1CCC[C@H](N1)C(=O)OCC(C)(C)C2 (atropisomer, axis not shown) [Example A366] | 0.1 to 1 µM | 0.01 to 0.1 µM | 0.1 to 1 µM | 1 to 10 µM | 1 to 10 µM | 0.1 to 1 µM | 1 to 10 µM | 1 to 10 µM | 0.1 to 1 µM | 0.1 to 1 µM | 1 to 10 µM | 1 to 10 µM
2 | C=CC(=O)N1CC[C@H](C(=O)N(C)[C@H](C(=O)N[C@H]2Cc3cc(cc(C(F)F)c3)-c3ccc4c(c3)c(c(-c3cccnc3[C@H](C)OC)n4CC(F)(F)F)CC(C)(C)COC(=O)[C@@H]3CCCN(N3)C2=O)C(C)C)C1 (atropisomer, axis not shown) [Example A372] | 0.01 to 0.1 µM | 0.1 to 1 µM | 0.1 to 1 µM | 1 to 10 µM | > 10 µM | 1 to 10 µM | 1 to 10 µM | 1 to 10 µM | 0.1 to 1 µM | 0.1 to 1 µM | 1 to 10 µM | 1 to 10 µM
3 | CCn1c(-c2cccnc2[C@H](C)OC)c2c3cc(ccc31)N1CCO[C@@H](C[C@H](NC(=O)[C@@H](COC3CN(C(=O)C#CC(C)(C)N(C)C)C3)C(C)C)C(=O)N3CCC[C@H](N3)C(=O)OCC(C)(C)C2)C1 (atropisomer, axis not shown) [Example A377, (2R)-2-(((1-(4-(dimethylamino)-4-methylpent-2-ynoyl)azetidin-3-yl)oxy)methyl)-N-((2^2S,6^3S,4S)-1^1-ethyl-1^2-(2-((S)-1-methoxyethyl)pyridin-3-yl)-10,10-dimethyl-5,7-dioxo-6^1,6^2,6^3,6^4,6^5,6^6-hexahydro-1^1H-8-oxa-2(4,2)-morpholina-1(5,3)-indola-6(1,3)-pyridazinacycloundecaphane-4-yl)-3-methylbutanamide] | < 0.01 µM | < 0.01 µM | 1 to 10 µM | > 10 µM | > 10 µM | > 10 µM | > 10 µM | > 10 µM | > 10 µM | < 0.01 µM | > 10 µM | > 10 µM
4 | CO[C@@H](C)c1ncccc1-c1c2c3cc(ccc3n1CC(F)(F)F)-c1csc(n1)C[C@H](NC(=O)CCOC1CN(C(=O)C#CC(C)(C)N(C)C)C1)C(=O)N1CCC[C@H](N1)C(=O)OCC(C)(C)C2 (atropisomer, axis not shown) [Example A380] | < 0.01 µM | < 0.01 µM | 0.1 to 1 µM | 1 to 10 µM | 1 to 10 µM | 0.1 to 1 µM | 1 to 10 µM | 1 to 10 µM | 1 to 10 µM | < 0.01 µM | 1 to 10 µM | 1 to 10 µM
5 | C=CC(=O)N1C[C@H](C)N(C(=O)N(C)[C@H](C(=O)N[C@H]2Cc3nc(cs3)-c3ccc4c(c3)c(c(-c3cccnc3[C@H](C)OC)n4CC)CC(C)(C)COC(=O)[C@@H]3CCCN(N3)C2=O)C(C)C)[C@@H](C)C1 (atropisomer, axis not shown) [Example A386] | 0.01 to 0.1 µM | 0.01 to 0.1 µM | 0.1 to 1 µM | 0.1 to 1 µM | 0.1 to 1 µM | 0.1 to 1 µM | 0.01 to 0.1 µM | 0.1 to 1 µM | 0.01 to 0.1 µM | 0.01 to 0.1 µM | 0.01 to 0.1 µM | 0.01 to 0.1 µM
6 | C=CC(=O)N1C[C@@H](C)N(C(=O)N(C)[C@H](C(=O)N[C@H]2Cc3nc(cs3)-c3ccc4c(c3)c(c(-c3cccnc3[C@H](C)OC)n4CC)CC(C)(C)COC(=O)[C@@H]3CCCN(N3)C2=O)C(C)C)[C@@H](C)C1 (atropisomer, axis not shown) [Example A387] | 0.01 to 0.1 µM | 0.01 to 0.1 µM | 0.1 to 1 µM | 0.1 to 1 µM | 0.1 to 1 µM | 0.1 to 1 µM | 0.01 to 0.1 µM | 0.1 to 1 µM | 0.01 to 0.1 µM | 0.01 to 0.1 µM | 0.01 to 0.1 µM | 0.01 to 0.1 µM
7 | C=CC(=O)N1CC2(CCN(C(=O)N(C)[C@H](C(=O)N[C@H]3Cc4nc(cs4)-c4ccc5c(c4)c(c(-c4cccnc4[C@H](C)OC)n5CC)CC(C)(C)COC(=O)[C@@H]4CCCN(N4)C3=O)C(C)C)CC2)C1 (atropisomer, axis not shown) [Example A394] | < 0.01 µM | 0.01 to 0.1 µM | 0.01 to 0.1 µM | 0.1 to 1 µM | 0.1 to 1 µM | 0.1 to 1 µM | 0.1 to 1 µM | 0.1 to 1 µM | 0.01 to 0.1 µM | 0.01 to 0.1 µM | 0.1 to 1 µM | 0.1 to 1 µM
8 | C=CC(=O)N1CCN(C(=O)N(C)[C@H](C(=O)N[C@H]2Cc3nc(cs3)-c3ccc4c(c3)c(c(-c3cccnc3[C@H](C)OC)n4CC)CC(C)(C)COC(=O)[C@@H]3CCCN(N3)C2=O)C(C)C)CC12CC2 (atropisomer, axis not shown) [Example A417] | 0.01 to 0.1 µM | 0.01 to 0.1 µM | 0.01 to 0.1 µM | 0.1 to 1 µM | 0.1 to 1 µM | 0.1 to 1 µM | 0.1 to 1 µM | 0.1 to 1 µM | 0.01 to 0.1 µM | 0.01 to 0.1 µM | 0.01 to 0.1 µM | 0.01 to 0.1 µM
9 | CCn1c(-c2cccnc2[C@H](C)OC)c2c3cc(ccc31)-c1csc(n1)C[C@H](NC(=O)CCOC1CN(C(=O)C#CC(C)(C)N(C)C)C1)C(=O)N1CCC[C@H](N1)C(=O)OCC(C)(C)C2 (atropisomer, axis not shown) [Example A427, 3-((1-(4-(dimethylamino)-4-methylpent-2-ynoyl)azetidin-3-yl)oxy)-N-((6^3S,4S,Z)-1^1-ethyl-1^2-(2-((S)-1-methoxyethyl)pyridin-3-yl)-10,10-dimethyl-5,7-dioxo-6^1,6^2,6^3,6^4,6^5,6^6-hexahydro-1^1H-8-oxa-2(4,2)-thiazola-1(5,3)-indola-6(1,3)-pyridazinacycloundecaphane-4-yl)propanamide] | < 0.01 µM | < 0.01 µM | 1 to 10 µM | 1 to 10 µM | > 10 µM | 1 to 10 µM | 1 to 10 µM | 1 to 10 µM | 1 to 10 µM | < 0.01 µM | > 10 µM | 1 to 10 µM
10 | C=CC(=O)N1CC[C@H](C(=O)N(C)[C@H](C(=O)N[C@H]2Cc3cccc(c3)-c3ccc4c(c3)c(c(-c3cc5c(nc3[C@H](C)OC)CCN(C)C5)n4CC)CC(C)(C)COC(=O)[C@@H]3CCCN(N3)C2=O)C(C)C)C1 (atropisomer, axis not shown) [Example A461] | < 0.01 µM | 0.1 to 1 µM | 1 to 10 µM | 1 to 10 µM | > 10 µM | 1 to 10 µM | 1 to 10 µM | > 10 µM | 1 to 10 µM | 0.1 to 1 µM | 1 to 10 µM | 1 to 10 µM
11 | C=CC(=O)N(C)C1CN(C(=O)N(C)[C@H](C(=O)N[C@H]2Cc3nc(cs3)-c3ccc4c(c3)c(c(-c3cccnc3[C@H](C)OC)n4CC)CC(C)(C)COC(=O)[C@@H]3CCCN(N3)C2=O)C(C)C)C1 (atropisomer, axis not shown) [Example A463] | < 0.01 µM | 0.01 to 0.1 µM | 0.1 to 1 µM | 0.1 to 1 µM | 1 to 10 µM | 0.1 to 1 µM | 0.1 to 1 µM | 0.1 to 1 µM | 0.01 to 0.1 µM | 0.01 to 0.1 µM | 0.1 to 1 µM | 0.1 to 1 µM
